For orientation: EC50 means the concentration at which the effect is half-maximal. Read a high EC50 as a less potent agent.

This is an account of results in ChEMBL document CHEMBL1143880, “Targeting gastrin-releasing peptide receptors of prostate cancer cells for photodynamic therapy with a phthalocyanine-bombesin conjugate” (Bioorg Med Chem Lett, 2008).

The target in this assay is Gastrin-releasing peptide receptor (Homo sapiens, UniProt P30550). Put plainly: Displacement of 125I[Tyr4]-bombesin from GRPR expressed in human PC3 cells. It is filed as cell-based, PC-3. For orientation: In a radioligand displacement assay an active substance lowers the binding of a labelled ligand.
Gastrin-releasing peptide receptor, sequence (P30550 whole entry): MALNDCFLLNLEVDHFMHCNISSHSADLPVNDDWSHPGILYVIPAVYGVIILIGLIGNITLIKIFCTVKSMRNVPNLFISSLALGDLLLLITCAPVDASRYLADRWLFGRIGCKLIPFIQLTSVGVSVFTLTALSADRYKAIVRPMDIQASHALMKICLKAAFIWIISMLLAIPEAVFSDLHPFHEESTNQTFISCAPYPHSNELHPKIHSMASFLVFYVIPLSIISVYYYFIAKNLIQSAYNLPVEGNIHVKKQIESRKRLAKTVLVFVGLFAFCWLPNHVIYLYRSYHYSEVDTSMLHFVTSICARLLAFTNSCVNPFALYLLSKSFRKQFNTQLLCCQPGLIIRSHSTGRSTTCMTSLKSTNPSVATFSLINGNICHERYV

`CSCC[C@H](NC(=O)[C@H](CC(C)C)NC(=O)[C@H](Cc1cnc[nH]1)NC(=O)CNC(=O)[C@@H](NC(=O)[C@H](C)NC(=O)[C@H](Cc1c[nH]c2ccccc12)NC(=O)[C@H](CCC(N)=O)NC(=O)CCCCCCCNC(=O)CCCCCN)C(C)C)C(N)=O` came in with an EC50 of 373 pM.
